The results in this text go back to US11110088B2, “Imidazopyrazine inhibitors of Bruton's tyrosine kinase” (Acerta Pharma B.V., priority 2015, dated 2021).

Usually IC50 stands for the midpoint of a concentration-inhibition curve. A high value points to a need for much substance. In general, EC50 refers to the concentration at which the effect is half-maximal. A high value points to lower potency in that assay.

One assay concerns the target Txk (Homo sapiens (Human), UniProt P42681). As to the kind of experiment: TXK enzyme activity, IMAP assay. It counts as biochemical. The conditions noted are these: 60 min pre-incubation; 1 μM ATP. As to the method: TXK enzyme activity is measured using the IMAP (immobilized metal ion affinity-based fluorescence polarization) assay as outlined below.
TXK enzyme (Millipore #14-761), is diluted to 2.5 U/mL in KR buffer (10 mM Tris-HCl, 10 mM MgCl2, 0.01% Tween-20, 0.1% NaN3, 1 mM DTT, 2 mM MnCl2, pH 7.5).
(§1) Serial dilutions log 10 from 2 mM to 63.2 nM of test compounds are made in 100% DMSO. The dilutions in DMSO are then diluted 50-fold in KR-buffer. Final compound concentration range in the assay ranged from 10 μM to 0.316 nM.
The assay is performed as follows: 5 μL/well of test compound in KR buffer (final DMSO concentration in the assay is 1%) is mixed with 5 μL/well of 2.5 U/mL TXK enzyme (final concentration in the assay is 0.625 U/mL (4.4 nM)). Test compounds and TXK enzyme are pre-incubated 60 minutes at room temperature, before adding 5 μL/well of 200 nM Fluorescin labeled substrate peptide (Blk/Lyntide substrate #R7188, Molecular Devices) in KR-buffer. Final peptide substrate concentration in assay is 50 nM. […] Following incubation for 2 hours at room temperature the enzyme reaction is stopped by adding 40 μL/well IMAP Progressive Binding Solution (according to suppliers (Molecular Devices) protocol using 60% 1× buffer A and 40% 1× buffer B with 800× diluted beads (Progressive Binding System, Molecular Devices). After 60 min incubation at room temperature in the dark the FP signal is read. Fluorescence at 535 nm is measured using parallel and perpendicular filters to determine differences in rotation due to binding of the phosphorylated substrate peptide to the beads. Values are calculated as percentage of the difference in readout (ΔmPi) of the controls with and without ATP. IC50 values are determined by curve fitting of the experimental results using Activity Base.

A further assay has as its target Bmx (Homo sapiens (Human), UniProt P51813). As to the kind of experiment: BMX enzyme activity, IMAP assay. The format is biochemical. The conditions noted are these: 60 min pre-incubation; 5 μM ATP. As to the method: BMX enzyme activity is measured using the IMAP (immobilized metal ion affinity-based fluorescence polarization) assay as outlined below.
(§2) The dilutions in DMSO are then diluted 50-fold in KR-buffer.
Test compounds and BMX enzyme are pre-incubated 60 minutes at room temperature, before adding 5 μL/well of 200 nM Fluorescin labeled substrate peptide (Blk/Lyntide substrate #R7188, Molecular Devices) in KR-buffer. Final peptide substrate concentration in assay is 50 nM. […] IC50 values are determined by curve fitting of the experimental results using Activity Base.

The next assay concerns the target ITK (Homo sapiens (Human), UniProt Q08881). As to the kind of experiment: ITK enzyme activity, IMAP assay. As to conditions: 60 min pre-incubation; 5 μM ATP. The format is biochemical. On the procedure: ITK enzyme activity is measured using the IMAP (immobilized metal ion affinity-based fluorescence polarization) assay as outlined below.
ITK enzyme (Millipore #14-660M) is diluted to 0.2 U/mL in KR buffer (10 mM Tris-HCl, 10 mM MgCl2, 0.01% Tween-20, 0.1% NaN3, 1 mM DTT, 2 mM MnCl2, pH 7.5)
as §2
Test compounds and ITK enzyme are pre-incubated 60 minutes at room temperature, before adding 5 μL/well of 200 nM Fluorescin labeled substrate peptide (Blk/Lyntide substrate #R8124, Molecular Devices) in KR-buffer. Final peptide substrate concentration in assay is 50 nM. […] IC50 values are determined by curve fitting of the experimental results using Activity Base.

The next assay addresses BTK (Homo sapiens (Human), UniProt Q06187). As to the kind of experiment: BTK enzyme activity, IMAP assay. The conditions noted are these: 60 min pre-incubation; 5 μM ATP. It counts as biochemical. On the procedure:
BTK enzyme activity is measured using the IMAP (immobilized metal ion affinity-based fluorescence polarization) assay as outlined below.
BTK enzyme (His-BTK (Millipore catalog #14-552)), is diluted to 0.4 U/mL in KR buffer (10 mM Tris-HCl, 10 mM MgCl2, 0.01% Tween-20, 0.05% NaN3, 1 mM DTT, 2 mM MnCl2, pH 7.2).
as §1
The assay is performed as follows: 5 μL/well of test compound in KR buffer (final DMSO concentration in the assay is 1%) is mixed with 5 µl/well of 0.4 U/mL BTK enzyme (final concentration in the assay is 0.1 U/mL). Test compounds and BTK enzyme are pre-incubated 60 minutes at room temperature, before adding 5 μL/well of 200 nM Fluorescin labeled substrate peptide (Blk/Lyntide substrate, e.g. #R7188/#R7233, Molecular Devices) in KR-buffer. Final peptide substrate concentration in assay is 50 nM. […] Following incubation for 2 hours at room temperature the enzyme reaction is stopped by adding 40 μL/well IMAP Progressive Binding Solution (according to suppliers (Molecular Devices) protocol using 75% 1× buffer A and 25% 1× buffer B with 1:600 Progressive Binding Solution). After 60 min incubation at room temperature in the dark the FP signal is read. Fluorescence at 535 nm is measured using parallel and perpendicular filters to determine differences in rotation due to binding of the phosphorylated substrate peptide to the beads. Values are calculated as percentage of the difference in readout (ΔmPi) of the controls with and without ATP. IC50 values are determined by curve fitting of the experimental results using Activity Base.

In assay [1] the test system is CD69 in CD19+ B cells of anti-IgM stimulated PBMCs. As to the kind of experiment: Human peripheral blood mononuclear cell (PBMC) CD69 assay. The format is cell-based. The conditions noted are these: 2 h compound, then anti-IgM 18 hours. As to the method: Example 44—Human Peripheral Blood Mononuclear Cell (PBMC) CD69 Assay
Whole blood was collected in heparin-coated Vacutainer tubes (BD Biosciences, San Jose, Calif.) and used for isolation of PBMCs using Ficoll-Hypaque (Pharmacia, Uppsala, Sweden). Isolated PBMCs were cryopreserved in 90% FCS/10% DMSO until later use.
Cells from cryogenic storage were thawed in a 37° C. water bath, diluted with RPMI/1% FCS, washed 2 times, and then plated at 1×10^5 cells per well in RPMI/10% FCS.
Serial dilutions log 10 from 10 mM to 316 nM of test compounds are made in 100% DMSO, followed by a 100-fold dilution into RPMI/1% FCS. For each well, 10 μL was then transferred to the deep well plate containing 90 μL of PBMC cells. Final compound concentration range in the assay ranged from 10 μM to 0.316 nM, with a final DMSO concentration of 0.1%. PBMCs are then incubated for 2 h at 37° C. in presence or absence of test compounds, prior to stimulation with goat F(ab′)2 anti-IgM (Southern Biotech, #2022-14, final concentration in assay 5 μg/mL) for 18 hours.
Following stimulation with anti-IgM, PBMCs were incubated on ice for 30 min with anti-CD69-FITC, anti-CD19-BV421 (BD Biosciences #555530 and #562440, respectively) and 7AAD (Life Technologies #A1310). Flow cytometry was performed and fluorescence values were obtained from the CD69-FITC channel in CD19+ gated life B cells. ECso values are determined by curve fitting of the experimental results using GraphPad Prism.

For another assay, the target named is EGFR WT (Homo sapiens (Human), UniProt P00533). As to the kind of experiment: EGFR enzyme activity, IMAP assay. As to conditions: 60 min pre-incubation; 2 μM ATP. It counts as biochemical. On the procedure: EGFR enzyme activity is measured using the IMAP (immobilized metal ion affinity-based fluorescence polarization) assay as outlined below.
Chain of EGFR WT (P00533 25-1210): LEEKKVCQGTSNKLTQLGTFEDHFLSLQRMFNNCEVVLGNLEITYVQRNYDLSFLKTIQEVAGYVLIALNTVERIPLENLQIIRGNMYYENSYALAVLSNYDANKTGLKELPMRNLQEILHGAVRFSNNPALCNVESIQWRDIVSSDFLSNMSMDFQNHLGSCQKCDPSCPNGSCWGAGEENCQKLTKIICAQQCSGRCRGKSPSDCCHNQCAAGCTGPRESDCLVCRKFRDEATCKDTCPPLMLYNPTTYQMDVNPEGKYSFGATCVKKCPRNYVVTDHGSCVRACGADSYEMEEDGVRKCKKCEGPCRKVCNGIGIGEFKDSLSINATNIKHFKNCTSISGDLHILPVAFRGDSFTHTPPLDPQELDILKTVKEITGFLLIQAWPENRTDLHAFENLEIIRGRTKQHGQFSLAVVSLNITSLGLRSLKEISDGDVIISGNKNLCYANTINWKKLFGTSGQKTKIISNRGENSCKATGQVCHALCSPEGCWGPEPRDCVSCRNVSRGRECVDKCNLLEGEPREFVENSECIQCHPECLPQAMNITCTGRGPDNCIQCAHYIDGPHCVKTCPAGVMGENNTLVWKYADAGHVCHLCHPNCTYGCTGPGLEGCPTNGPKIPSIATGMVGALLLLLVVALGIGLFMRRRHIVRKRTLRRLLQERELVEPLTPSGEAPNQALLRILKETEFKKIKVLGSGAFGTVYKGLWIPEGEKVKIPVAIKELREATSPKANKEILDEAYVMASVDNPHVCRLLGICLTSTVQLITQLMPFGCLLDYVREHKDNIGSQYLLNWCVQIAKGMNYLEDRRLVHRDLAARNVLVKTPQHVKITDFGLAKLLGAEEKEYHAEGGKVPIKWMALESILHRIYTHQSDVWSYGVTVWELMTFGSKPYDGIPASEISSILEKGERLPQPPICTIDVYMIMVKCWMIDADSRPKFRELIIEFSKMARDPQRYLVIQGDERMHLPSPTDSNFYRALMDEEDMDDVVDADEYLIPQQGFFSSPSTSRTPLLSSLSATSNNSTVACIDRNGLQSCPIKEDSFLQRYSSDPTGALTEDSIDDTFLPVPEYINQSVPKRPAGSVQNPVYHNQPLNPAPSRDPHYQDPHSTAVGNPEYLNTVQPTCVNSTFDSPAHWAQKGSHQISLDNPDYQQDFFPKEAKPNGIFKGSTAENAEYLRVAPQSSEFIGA
EGFR enzyme (Invitrogen catalog #PR7295B), is diluted to 2.5 μg/mL in KR buffer (10 mM Tris-HCl, 10 mM MgCl2, 0.01% Tween-20, 0.1% NaN3, 1 mM DTT, 2 mM MnCl2, pH 7.5).
Final peptide substrate concentration in assay is 50 nM. […] Following incubation for 60 min at room temperature in the dark the enzyme reaction is stopped by adding 40 μL/well IMAP Progressive Binding Solution (according to suppliers (Molecular Devices) protocol using 20% 1× buffer A and 80% 1× buffer B with 600× diluted beads). After 60 min incubation at room temperature in the dark the FP signal is read. […] Values are calculated as percentage of the difference in readout (ΔmPi) of the controls with and without ATP. IC50 values are determined by curve fitting of the experimental results using GraphPad Prism6.

Chain of Txk (P42681 whole entry): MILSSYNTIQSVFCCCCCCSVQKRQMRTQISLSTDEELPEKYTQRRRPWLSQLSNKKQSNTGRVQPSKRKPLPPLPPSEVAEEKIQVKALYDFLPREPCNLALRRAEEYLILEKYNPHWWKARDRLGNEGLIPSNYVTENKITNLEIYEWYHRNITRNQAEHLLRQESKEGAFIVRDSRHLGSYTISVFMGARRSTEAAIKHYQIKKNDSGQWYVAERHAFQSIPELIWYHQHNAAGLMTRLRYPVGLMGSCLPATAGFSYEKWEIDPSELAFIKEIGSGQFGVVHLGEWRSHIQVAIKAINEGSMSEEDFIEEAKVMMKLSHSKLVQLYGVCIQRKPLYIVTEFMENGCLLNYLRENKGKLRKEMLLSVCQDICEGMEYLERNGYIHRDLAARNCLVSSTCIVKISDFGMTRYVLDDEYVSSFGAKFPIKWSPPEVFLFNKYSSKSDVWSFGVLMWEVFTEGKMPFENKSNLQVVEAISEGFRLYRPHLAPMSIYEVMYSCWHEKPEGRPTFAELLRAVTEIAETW
Chain of ITK (Q08881 whole entry): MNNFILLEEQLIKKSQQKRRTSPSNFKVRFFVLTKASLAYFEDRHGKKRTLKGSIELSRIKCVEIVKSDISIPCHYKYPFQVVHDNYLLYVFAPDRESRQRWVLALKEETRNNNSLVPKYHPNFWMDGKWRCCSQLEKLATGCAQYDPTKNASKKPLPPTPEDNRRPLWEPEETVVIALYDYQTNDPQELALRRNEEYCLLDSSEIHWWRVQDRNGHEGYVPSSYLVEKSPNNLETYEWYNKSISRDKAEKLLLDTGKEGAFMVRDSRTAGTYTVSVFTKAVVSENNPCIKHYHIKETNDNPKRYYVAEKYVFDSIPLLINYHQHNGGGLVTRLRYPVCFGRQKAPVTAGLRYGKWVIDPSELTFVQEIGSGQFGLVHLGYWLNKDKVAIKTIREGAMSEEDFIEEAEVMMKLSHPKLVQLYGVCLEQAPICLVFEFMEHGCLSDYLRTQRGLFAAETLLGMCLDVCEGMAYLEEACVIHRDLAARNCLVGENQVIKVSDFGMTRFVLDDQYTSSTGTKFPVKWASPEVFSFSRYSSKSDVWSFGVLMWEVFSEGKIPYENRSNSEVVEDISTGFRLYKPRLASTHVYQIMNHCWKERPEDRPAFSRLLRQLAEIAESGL
Chain of Bmx (P51813 whole entry): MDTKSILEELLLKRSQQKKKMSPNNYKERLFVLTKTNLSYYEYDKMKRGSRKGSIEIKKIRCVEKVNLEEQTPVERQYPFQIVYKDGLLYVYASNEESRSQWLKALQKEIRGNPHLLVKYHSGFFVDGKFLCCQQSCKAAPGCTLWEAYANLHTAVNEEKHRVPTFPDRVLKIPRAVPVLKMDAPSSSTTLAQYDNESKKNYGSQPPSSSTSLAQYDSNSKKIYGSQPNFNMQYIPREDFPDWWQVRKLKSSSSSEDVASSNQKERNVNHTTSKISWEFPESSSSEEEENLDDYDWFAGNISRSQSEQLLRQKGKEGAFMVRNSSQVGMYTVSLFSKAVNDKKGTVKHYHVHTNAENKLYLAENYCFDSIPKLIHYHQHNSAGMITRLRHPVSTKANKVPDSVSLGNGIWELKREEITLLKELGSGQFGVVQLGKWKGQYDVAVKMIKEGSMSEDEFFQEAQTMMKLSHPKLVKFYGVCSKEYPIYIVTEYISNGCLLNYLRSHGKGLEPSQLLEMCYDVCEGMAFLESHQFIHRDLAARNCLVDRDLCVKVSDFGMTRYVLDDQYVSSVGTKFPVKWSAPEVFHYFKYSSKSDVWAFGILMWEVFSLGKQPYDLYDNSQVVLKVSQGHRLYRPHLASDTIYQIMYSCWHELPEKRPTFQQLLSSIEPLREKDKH
Chain of BTK (Q06187 whole entry): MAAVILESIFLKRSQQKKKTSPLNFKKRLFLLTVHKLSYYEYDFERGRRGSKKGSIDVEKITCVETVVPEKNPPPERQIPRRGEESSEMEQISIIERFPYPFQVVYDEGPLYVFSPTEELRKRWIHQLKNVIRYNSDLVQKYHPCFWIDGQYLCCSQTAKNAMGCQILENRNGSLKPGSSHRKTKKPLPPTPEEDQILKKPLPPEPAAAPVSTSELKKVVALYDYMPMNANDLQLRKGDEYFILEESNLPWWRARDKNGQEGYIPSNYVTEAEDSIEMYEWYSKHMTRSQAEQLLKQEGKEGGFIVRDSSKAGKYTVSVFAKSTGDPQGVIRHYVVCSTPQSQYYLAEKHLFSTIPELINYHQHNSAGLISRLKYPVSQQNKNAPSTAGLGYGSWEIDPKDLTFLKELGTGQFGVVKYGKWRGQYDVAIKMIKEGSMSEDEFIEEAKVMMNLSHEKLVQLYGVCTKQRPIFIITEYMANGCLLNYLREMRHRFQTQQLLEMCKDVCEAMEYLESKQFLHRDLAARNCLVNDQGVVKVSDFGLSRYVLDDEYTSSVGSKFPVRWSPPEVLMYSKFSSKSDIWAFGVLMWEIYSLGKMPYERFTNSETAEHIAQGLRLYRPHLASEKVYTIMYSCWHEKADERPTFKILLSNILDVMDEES

On to `CC#CC(=O)N(C)[C@@H](C)c1nc(-c2ccc(C(=O)Nc3ccccn3)c(OC)c2)c2c(N)nccn12`, for which the half-inhibitory concentration (IC50) on Txk was 3 nM; on Bmx, 4.2 nM; at ITK, above 1000 nM; at BTK it was 2 nM; on EGFR WT, above 1000 nM. In assay [1] (Homo sapiens, PBMC), the EC50 amounted to 2.4 nM.
As to `CC#CC(=O)N1CCC[C@H]1c1nc(-c2ccc(C(=O)Nc3nccs3)c(OC)c2)c2c(N)nccn12`, the IC50 is 7.1 nM against Txk; 12 nM against Bmx; above 1000 nM at ITK; 3.9 nM at BTK; above 1000 nM at EGFR WT. This compound displayed an EC50 in assay [1] (Homo sapiens, PBMC) of 11 nM.
Take `CC#CC(=O)N1CCC[C@H]1c1nc(-c2ccc(C(=O)Nc3ccc(C)cn3)c(OC)c2)c2c(N)nccn12`: the 50% inhibitory concentration (IC50) is 11 nM against Txk; 11 nM against Bmx; above 1000 nM at ITK; 6.7 nM against BTK; above 1000 nM against EGFR WT. In assay [1] (Homo sapiens, PBMC), this compound returned an EC50 of 5.2 nM.
Turning to `CC#CC(=O)N[C@@H](C)c1nc(-c2ccc(C(=O)Nc3ccc(C)cn3)cc2)c2c(N)nccn12`, the IC50 at Txk was 2.1 nM; on Bmx it was 2.9 nM; against ITK, 287 nM; against BTK, 1.6 nM. In addition, a half-maximal effect in assay [1] (Homo sapiens, PBMC) (EC50) was put at 1 nM.
With `CC#CC(=O)N[C@@H](C)c1nc(-c2ccc(C(=O)Nc3ccc(C)cn3)c(OC)c2)c2c(N)nccn12`, the IC50 is 1.7 nM at Txk; 2.4 nM on Bmx; above 1000 nM on ITK; 1.9 nM against BTK; above 1000 nM against EGFR WT. In addition, in assay [1] (Homo sapiens, PBMC), the EC50 was 1.3 nM.
`CC#CC(=O)N(C)[C@@H](C)c1nc(-c2ccc(C(=O)Nc3ccc(C)cn3)cc2)c2c(N)nccn12`: the half-inhibitory concentration (IC50) on Txk turned out to be 3.9 nM; on Bmx, 4.5 nM; against ITK, 254 nM; against BTK, 1.8 nM; against EGFR WT it was 354 nM. This compound showed a concentration giving a half-maximal response (EC50) in assay [1] (Homo sapiens, PBMC) of 1.7 nM.
With `CC#CC(=O)N(C)[C@@H](C)c1nc(-c2ccc(C(=O)Nc3ccccn3)cc2)c2c(N)nccn12`, the IC50 was 3.7 nM on Txk; 7.5 nM on Bmx; above 1000 nM on ITK; 2.1 nM at BTK; 123 nM on EGFR WT. The compound also gave an EC50 in assay [1] (Homo sapiens, PBMC) of 1.9 nM.
With `COC/C=C/C(=O)N(C)[C@@H](C)c1nc(-c2ccc(C(=O)Nc3ccc(C)cn3)cc2)c2c(N)nccn12`, the IC50 against Txk is 14 nM; at Bmx, 15 nM; against BTK, 11 nM. Besides, in assay [1] (Homo sapiens, PBMC), the EC50 was 3.5 nM.
`COC/C=C/C(=O)N[C@@H](C)c1nc(-c2ccc(C(=O)Nc3ccc(C)cn3)cc2)c2c(N)nccn12`: the IC50 against Txk was 1.5 nM; against Bmx it was 2.9 nM; against ITK, 478 nM; at BTK, 2.4 nM; against EGFR WT it was 360 nM. For the same compound, a half-maximal effect in assay [1] (Homo sapiens, PBMC) (EC50) was put at 4.2 nM.
As for `CC#CC(=O)N[C@@H](C)c1nc(-c2ccc(C(=O)Nc3cc(C(F)(F)F)ccn3)cc2)c2c(N)nccn12`, the IC50 against Txk is 1.8 nM; at Bmx it was 1.9 nM; against ITK it was 119 nM; against BTK it was 1.8 nM; against EGFR WT it was 327 nM. In assay [1] (Homo sapiens, PBMC), this compound displayed an EC50 of 0.7 nM.
For the compound `CC#CC(=O)N[C@@H](C)c1nc(-c2ccc(C(=O)Nc3cc(C(F)(F)F)ccn3)c(OC)c2)c2c(N)nccn12`, the IC50 on Txk is 4.7 nM; at Bmx, 3.5 nM; against ITK, above 1000 nM; at BTK, 2.2 nM; at EGFR WT it was above 1000 nM. In assay [1] (Homo sapiens, PBMC), this compound registered an EC50 of 1.4 nM.
For `COC/C=C/C(=O)N[C@@H](C)c1nc(-c2ccc(C(=O)Nc3ccc(C)cn3)c(OC)c2)c2c(N)nccn12`, the IC50 is 2.7 nM against Txk; 3 nM on Bmx; above 1000 nM against ITK; 3.9 nM against BTK; above 1000 nM against EGFR WT. The same compound gave an EC50 in assay [1] (Homo sapiens, PBMC) of 1.9 nM.
In the case of `CC#CC(=O)N1CCC[C@H]1c1nc(-c2ccc(C(=O)Nc3cscn3)cc2)c2c(N)nccn12`, the IC50 against Txk was 33.5 nM; against ITK, above 1000 nM; against BTK, 6.3 nM. The response in assay [1] (PBMC) was half-maximal at 9.5 nM (EC50).
Regarding `CC#CC(=O)N(C)[C@@H](C)c1nc(-c2ccc(C(=O)Nc3ccc(C)cn3)c(OC)c2)c2c(N)nccn12` [drawing 83], the results for the IC50 against Txk, against Bmx and against BTK were 12 nM, 16 nM and 4.2 nM, respectively. Besides, it took 3.7 nM to reach a half-maximal effect in assay [1] (Homo sapiens, PBMC) (EC50).
Consider `CC#CC(=O)N(C)[C@@H](C)c1nc(-c2ccc(C(=O)Nc3ccc(C)cn3)c(OC)c2)c2c(N)nccn12` [drawing 89], for which the IC50 at Txk was 5.1 nM; at Bmx it was 6.8 nM; against BTK, 5.1 nM. For the same compound, a half-maximal effect in assay [1] (EC50) was put at 5.1 nM.
